Test results reported in patent publication US20150126507A1, “COMPOUNDS TO TREAT HEARING LOSS” (Fate Therapeutics, Inc., priority 2013, published 2015).
“Also recorded” adds a separate entry of the source.

What was measured:
Assay type in all cases: cell-based
[1] = test system: Atoh1 expression in P5 rat cochlear explants; test: Cochlear explant assay, Atoh1 expression by qRT-PCR after tobramycin pretreatment; conditions: 1 mM tobramycin pretreatment, then compound vs DMSO
Description: FIG. 3. Postnatal day 5 rat cochleae were cultured for 2 days with 1 mM tobramycin and then 3 days with test compound or vehicle. Relative Atoh1 expression was measured by qRT-PCR. Results are expressed as average±S.D. for >7 individual cochleae per treatment group. * p<0.05, student's t-test.
The ten selected hits of Example 43 were assayed for the ability to induce Atoh1 expression in primary cultured cochlear explants from the neonatal rat. Postnatal day 5 (P5) rat cochlear explants were cultured with the ototoxic aminoglycoside antibiotic, tobramycin (1 mM), for 3 days prior to drug testing, as an in vitro model of drug-induced hearing loss. […] See, e.g., Ruedi, et al., Larynoscope 62:333-357 (1952). After the 3 day tobramycin pretreatment, the cochlear explants were cultured with the compounds of Example 43 or DMSO vehicle for an additional 2 days. Atoh1 expression levels, measured by qRT-PCR and normalized to ribosomal 18S expression, after hit compound treatments are shown in FIG. 3.

Atoh1 reporter cell line = test: Transcriptional profiling of Atoh1 reporter cell line by gene profiling microarray; conditions: 5 μM, 2 days, vs DMSO
Description: FIG. 5. An Atoh1 reporter cell line was treated with 5 μM Compound 4 or DMSO for 2 days. Gene expression was measured with a gene profiling microarray and plotted.
In an attempt to identify the signaling pathway by which Compound 4 induces Atoh1 expression, transcriptional profiling of the Atoh1 reporter cell line was compared after treatment with Compound 4 or DMSO control. The Atoh1 reporter cell line was treated with 5 μM or Compound 4 or DMSO for 2 days. […] An upregulation of endogenous Atoh1 with Compound 4 treatment in the reporter line was not observed, presumably because the overexpressed reporter sequence outcompeted the native Atoh1 regulatory domain. […] See, e.g., Martinez, et al., Toxicol. Sci. 82:429-435, (2004); Ito, et al., J. Immunotoxicol. 3(1):21-30 (2006); and Sun, et al., Nucleic Acids Res. 32(15):4512-4523 (2004). […] See, e.g., Qian, et al., J. Immunol. 166:2553-2561 (2001) and Kimura, et al., Biochem. Biophys. Res. Comm. 264:86-92 (1999).

[2] = test system: Atoh1-GFP mouse cochlear explants; test: Atoh1-GFP reporter mouse cochlear explants, confocal imaging and immunostaining; conditions: 40 μM, 3 days
Description: FIG. 4. Confocal images of E13 and P0 Atoh1-GFP mouse cochlear explants cultured for 3 days in 40 μM Compound 4 or DMSO and immunostained with antibodies against the supporting cell marker Sox2 (red), the hair cell marker MyosinVIIa (Myo7a, blue) and an anti-GFP antibody (green). […] Scale bars: A and B (50 μm); C and E (500 μm); D and F (25 μm).
To identify which cells expressed Atoh1 after hit compound treatment, we utilized cochlear explants from embryonic and postnatal Atoh1-GFP reporter mice. See, e.g., Lumpkin, et al., Gene Expression Patterns 3:389-395 (2003). Both embryonic and neonatal cochleae were used in order to identify if there was a temporal window in which tissue was more responsive to drug treatment.

[3] = test system: Atoh1 enhancer reporter in HEK293 cells; test: Atoh1 reporter cell line, firefly luciferase normalized to renilla luciferase; conditions: Homo sapiens, HEK293, 48 h, Atoh1 reporter HEK293 cells, treated 2 days, dose response; read-out: ED50 (the source's name)
Description: FIG. 2. Dose response data for selected hits. Atoh1 reporter cells plated in 384 well plates were treated with test compounds or vehicle controls for 2 days. Firefly luciferase signal was measured and normalized to the renilla luciferase signal. Results from duplicate wells (circles and triangles) are expressed relative to normalized controls treated with DMSO.
A reporter cell line expressed in HEK293 cells in which Atoh1 enhancer elements flanked a minimal promoter driving firefly luciferase expression was created. Dose response data was generated in the reporter cell line. Atoh1 reporter cells plated in […] plates were treated with test compounds or vehicle controls for 2 days. Firefly luciferase signal was measured and normalized to the renilla luciferase signal.
For high-throughput screening, HEK293 cells were transduced with a lentiviral vector containing a concatamer of Atoh1 enhancer A and B elements, the Promega minP minimal promoter, firefly luciferase coding sequence and hygromycin selectable marker. After selection, the cells were transduced with a second lentiviral vector containing the EF1α constitutive promoter, Renilla luciferase and puromycin selectable marker. A clonal derivative expressing both transgenes was expanded and banked for screening.
A screening assay was done by plating 8000 cells/well in 384 well plates, and treating for 48 hours with 1 and 10 μM test compound in DMSO, vehicle control, or the GSK-3B inhibitor, BIO, as a positive control. Firefly and Renilla luciferase were measured sequentially using Dual-Glo (Promega) with an Envision multi-label plate reader (Perkin Elmer). Data were analyzed after normalizing firefly luciferase signals to Renilla luciferase signals. A primary screen of 50,000 diverse compounds identified 140 hits. […] 10 of these 41 hits were selected for further analysis
To confirm activity in the 10 selected hits, the test compounds were reassayed at 3.3×10^−9, 1×10^−8, 3.3×10^−8, 1×10^−7, 3.3×10^−7, 1×10^−6, 3.3×10^−6 and 1×10^−5 molar concentrations. […] Results from duplicate wells (circles and triangles) are expressed relative to normalized controls treated with DMSO.

[4] = P0 Atoh1-GFP mouse cochlear explants

- upregulation of annotated genes (EGR1, SCIN, CYP1A1, CYP1B1, TACT, MAFF) (Atoh1 reporter cell line): greater than 3 fold
SMILES: Cc1c(C(=O)Nc2nccs2)oc2ccccc12 [Compound 4]
- Atoh1 expression by qRT-PCR normalized to ribosomal 18S [1]: largest stimulation of Atoh1 expression
- upregulation of endogenous Atoh1 (Atoh1 reporter cell line): not observed
- averaged total length of the organ of Corti vs DMSO ([2]; Atoh1-GFP mouse cochlear explants): no difference
- GFP+ hair cells in E13 explants vs DMSO control ([2]; E13 Atoh1-GFP mouse cochlear explants): greater number of GFP-positive hair cells; also recorded: increase in GFP+ hair cells
- GFP+ hair cells with Sox2+ nuclei in P0 explants [2, 4]: numerous ectopic GFP+ hair cells with weak nuclear Sox2 expression; also recorded: numerous GFP+/MyosinVIIa+ cells were observed to have Sox2+ nuclei
- GFP-positive hair cell domain in P0 explants vs DMSO control [2, 4]: expansion in the GFP+ hair cell domain; also recorded: expansion of the GFP-positive hair cell domain
- EC50 [3]: 1300 nM
